# Values quoted from earlier work as cited in CN116041271A, “一种氟苯尼考中间体的制备方法” (Shandong Weiyan Biotechnology Co ltd, priority 2022, dated 2023).
# Legend:
# Fusobacterium (梭杆菌) = details: in words; cattle
# [1] = in words
# [2] = administered in feed
# [3] = in words; remark: listed apart in the source
structure (smiles),measurement,setting,value
CS(=O)(=O)c1ccc([C@@H](O)[C@@H](CF)NC(=O)C(Cl)Cl)cc1 [氟苯尼考],antibacterial effect relative to chloramphenicol and thiamphenicol,"compared with chloramphenicol, thiamphenicol",15-20 times
same,antibacterial spectrum,in words,广
same,bacteriostatic action,in words,强
same,minimum inhibitory concentration (MIC),in words,低
same,therapeutic effect on bovine foot rot caused by Fusobacterium,Fusobacterium (梭杆菌),有较好疗效
same,control of disease,[1],能迅速控制病情
same,time after administration to peak drug concentration in tissue,[2],60 min
same,potential risk of causing aplastic anemia,[3],无潜在致再生障碍性贫血的隐患
same,residue,[3],无残留
same,safety,[3],安全性高
same,toxicity,[3],无毒
